Assay results reported in patent publication US11332564B2, “Method to produce stimuli sensitive UV absorbing polymers” (GALAXY SURFACTANTS LTD, priority 2020, dated 2022).

What was measured:
[1] = Photo-degradation study of cream formulations under UV lamp, 200 h; type: physicochemical; conditions: Cream Example VII (without copolymer of Example II)
Protocol: Example VII is a cream formulation with OMC and Avobenzone is exposed for 200 h using UV light from a UV lamp.

[2] = commercial UV absorbers; cited from earlier work
[3] = Photo-degradation study of cream formulations under UV lamp, 200 h; type: physicochemical; conditions: Cream of Example VIII (10% copolymer of Example II)
[4] = UV absorption (E1%cm, extinction, λmax) by absorption spectrophotometer; type: physicochemical; conditions: for E1%cm: at λmax 310 nm
Protocol: (§1) p-Methoxy cinnamido propyl dimethyl amine was obtained from Galaxy Surfactants Ltd., Mumbai. Vinyl benzyl chloride was purchased from Seimi Chemical Co., Ltd. Japan. N, N-Diethyl acrylamide was obtained from Sigma Aldrich, India. N-isoproyl acrylamide was synthesized as per the literature procedure (Polym. J., Vol. 25, No. 6, pp. 561-567). Surface tension was measured on Kruss tensiometer by Wilhelmy plate method. Intrinsic viscosity was measured by Ubbelohde viscometer. NMR spectroscopy was done on 400 MHz Bruker machine. Infrared spectra were recorded on FTIR from Perkin Elmer (Spectrum 100). UV Varian's, Cary 50 absorption spectrophotometer was used for UV absorption data.

[5] = Surface tension, Kruss tensiometer, Wilhelmy plate method; type: physicochemical
Protocol: as §1

| Component content, UV exposure 200 h [1] [%] | Component content, Unexposed [1] [%] | Component content, Zero h [1] [%] | Component content, UV exposure 200 h [3] [%] | Component content, Unexposed [3] [%] | Component content, Zero h [3] [%] | Surface tension of 1% aqueous solution [5] [mN/m] | E1%cm [4] | E1%cm ([4]; listed as Step (a) of Example I) | SMILES | λmax [2] [nm] | molar extinction coefficient ([4]; at 290 nm) |
| --- | --- | --- | --- | --- | --- | --- | --- | --- | --- | --- | --- |
| 0.1 | 2.0 | 2.0 | 1.5 | 2.0 | 2.0 | – | – | – | COc1ccc(C(=O)CC(=O)c2ccc(C(C)(C)C)cc2)cc1 [Avobenzone] | 360 | – |
| – | – | – | – | – | – | – | – | – | COc1ccc(C=CC(=O)NCCCN(C)C)cc1 [Formula IIa, p-methoxy cinnamidopropyl dimethyl amine] | – | 24,000 |
| – | – | – | – | – | – | 42.6 | 568 | 463 | C=Cc1ccc(C[N+](C)(C)CCCNC(=O)/C=C/c2ccc(OC)cc2)cc1 [Formula IVa, p-methoxy cinnamido propyl p-vinyl benzyl dimethyl ammonium chloride] | – | – |
| 2 | 6.0 | 6 | 4.5 | 6.0 | 6.0 | – | – | – | CCCCC(CC)COC(=O)C=Cc1ccc(OC)cc1 (stereo not drawn) [OMC, Octyl methoxy cinnamate] | 302 | – |
